Source: patent US20090304625A1, “MODULATORS OF CARDIAC CELL HYPERTROPHY AND HYPERPLASIA” (priority 2006, published 2009)

What was measured:
[1] = tested on: tumor angiogenesis; details: mouse tumor xenograft models; cited from earlier work
[2] = tested on: subcutaneous xenograft tumors; details: cited from earlier work; for growth of tumor cells grown as subcutaneous xenografts: athymic mice
[3] = tested on: human umbilical vein endothelial cells; details: in culture, cited from earlier work
[4] = tested on: tumor cells grown in culture; details: cited from earlier work
[5] = tested on: mast cells (MCs); assay: Mast cell density in LV of WT mice treated with cromolyn; assay type: in vivo, mouse; details: cromolyn 60 mg/kg/day
Source text: (§1) Induction of pressure overload: At eight weeks of age, WT or Kit^w/Kit^w-v mice were subjected to suprarenal aortic constriction (SAC) to induce hypertension and, thus, pressure overload, or to sham operation, as previously described (M. Li et al. (2004)). One group (both SAC and sham-operated animals) was allowed to recover from surgery for 2 days and animals surviving this peri-operative period were then followed for survival over the next 28 days. A second group were sacrificed at 3, 7 or 14 days after SAC, and a third group was treated with the mast cell stabilizer, sodium chromoglycate (60 mg/kg/day, intraperitoneal, osmotic minipump) for one week before and then for the 7 days after surgery, at which time they were sacrificed.

[6] = tested on: c-kit+ CSCs; assay: c-kit+ cardiac stem cell numbers in LV of 7-day-SAC WT mice; assay type: in vivo, mouse; details: cromolyn 60 mg/kg/day started 7 days before SAC, n=5
Source text: as §1, with “sacrificed. […] There are several different but overlapping types of CSCs, which are grouped according to cell surface markers, e.g., ckit+, Sca1+, MDR1+, isl1+, e-kit+ CSCs differentiated into cardiomyocytes contributing to repair of a damaged heart. […] In the W/W^v- and WT-SAC LV myocardium, c-kit^+ CSCs occurred individually, in pairs or in large clusters. c-kit^+ CSC clusters were not seen in the LVs of WT- or […] were rare in WT-SAC mice. Compared to sham controls, 7 days of SAC increased c-kit^+ CSCs 19-fold in the […]<0.001; FIG. 6A). Compared to the WT-SAC LV, the increase was 5.5-fold (P<0.01; FIG. 6A). […]” for “sacrificed.”

| Structure (SMILES) | tumor angiogenesis in vivo [1] | growth of tumor cells grown as subcutaneous xenografts [2] | VEGF-induced proliferation of human umbilical vein endothelial cells ([3]; VEGF-induced) | growth of tumor cells grown in culture [4] | regression of established xenograft tumors ([2]; mice) | VEGF- and FGF-induced proliferation of human umbilical vein endothelial cells ([3]; VEGF- and FGF-induced) | reduction of MC density [5] | MC density ([5]; n=4) [MCs/mm^2] | c-kit+ CSCs [6] [CSCs/mm^2] |
| --- | --- | --- | --- | --- | --- | --- | --- | --- | --- |
| Cc1cc(C)c(/C=C2\C(=O)Nc3ccccc32)[nH]1 [SU5416] | inhibit tumor angiogenesis in vivo | inhibit the growth | inhibits | neither compound potently inhibits |  |  |  |  |  |
| Cc1[nH]c(/C=C2\C(=O)Nc3ccccc32)c(C)c1CCC(=O)O [SU6668] | inhibit tumor angiogenesis in vivo | inhibit the growth |  | neither compound potently inhibits | causes regression | inhibits |  |  |  |
| O=C(O)c1cc(=O)c2c(OCC(O)COc3cccc4oc(C(=O)O)cc(=O)c34)cccc2o1 [cromolyn, sodium chromoglycate] |  |  |  |  |  |  | approximately 80% | 0.45±0.2 | 38±3 |
